# Results taken from patent publication US11477982B2, “2-amino-5-oxyalkyl-pyrimidine derivatives and their use for controlling undesired plant growth” (Bayer CropScience Aktiengesellschaft, priority 2017, dated 2022).
# Columns and labels:
# Type in all cases: in vivo
# [1] = test system: POLCO: Polygonum convolvulus; experiment: Post-emergence herbicidal effect
# How it was run: (§1)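 Foliar post-emergence spray on one-leaf-stage plants raised in sandy loam in the greenhouse, using WP or EC formulations with 0.5% additive at a water rate of 600 l/ha; effect judged visually about 3 weeks on, 0% to 100% relative to untreated plants.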
# PHBPU: Ipomoea purpurea [2] = experiment: Post-emergence herbicidal effect
# How it was run: as §1
# [3] = test system: ALOMY: Alopecurus myosuroides; experiment: Post-emergence herbicidal effect
# How it was run: as §1
# [4] = test system: ABUTH: Abutilon theophrasti; experiment: Post-emergence herbicidal effect
# How it was run: as §1
# SETVI: Setaria viridis [5] = experiment: Post-emergence herbicidal effect
# How it was run: as §1
# [6] = test system: ECHCG: Echinochloa crus-galli; experiment: Post-emergence herbicidal effect
# How it was run: as §1
# HORMU: Hordeum murinum [7] = experiment: Post-emergence herbicidal effect
# How it was run: as §1
# LOLRI: Lolium rigidum [8] = experiment: Post-emergence herbicidal effect
# How it was run: as §1
# [9] = test system: AMARE: Amaranthus retroflexus; experiment: Post-emergence herbicidal effect; conditions: dosage 320 g/ha
# How it was run: as §1
# STEME: Stellaria media [10] = experiment: Post-emergence herbicidal effect
# How it was run: as §1
# AVEFA: Avena fatua [11] = experiment: Post-emergence herbicidal effect
# How it was run: as §1
# VIOTR: Viola tricolor [12] = experiment: Post-emergence herbicidal effect
# How it was run: as §1
# [13] = test system: MATIN: Matricaria inodora; experiment: Post-emergence herbicidal effect
# How it was run: as §1
# [14] = test system: AMARE: Amaranthus retroflexus; experiment: Pre-emergence herbicidal effect; conditions: pre-emergence
# How it was run: (§2)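 Seeds sown in pots and covered with soil; compounds formulated as WP or EC were sprayed onto the soil surface as aqueous suspension/emulsion with 0.5% additive at 600 l/ha water. Greenhouse growth for about 3 weeks, then visual scoring in % versus untreated controls (100% = plants died, 0% = like control).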
# [15] = test system: POLCO: Polygonum convolvulus; experiment: Pre-emergence herbicidal effect
# How it was run: as §2
# CYPES = experiment: Pre-emergence herbicidal effect
# How it was run: as §2
# PHBPU: Ipomoea purpurea [16] = experiment: Pre-emergence herbicidal effect
# How it was run: as §2
# [17] = test system: ALOMY: Alopecurus myosuroides; experiment: Pre-emergence herbicidal effect; conditions: pre-emergence
# How it was run: as §2
# STEME: Stellaria media [18] = experiment: Pre-emergence herbicidal effect; conditions: pre-emergence; dosage 320 g/ha
# How it was run: as §2
# [19] = test system: ABUTH: Abutilon theophrasti; experiment: Pre-emergence herbicidal effect
# How it was run: as §2
# SETVI: Setaria viridis [20] = experiment: Pre-emergence herbicidal effect; conditions: pre-emergence
# How it was run: as §2
# AVEFA: Avena fatua [21] = experiment: Pre-emergence herbicidal effect
# How it was run: as §2
# [22] = test system: ECHCG: Echinochloa crus-galli; experiment: Pre-emergence herbicidal effect; conditions: pre-emergence
# How it was run: as §2
# VIOTR: Viola tricolor [23] = experiment: Pre-emergence herbicidal effect; conditions: dosage 320 g/ha
# How it was run: as §2
# HORMU: Hordeum murinum [24] = experiment: Pre-emergence herbicidal effect; conditions: pre-emergence
# How it was run: as §2
# LOLRI: Lolium rigidum [25] = experiment: Pre-emergence herbicidal effect
# How it was run: as §2
# VERPE: Veronica persica [26] = experiment: Pre-emergence herbicidal effect; conditions: dosage 320 g/ha
# How it was run: as §2
# [27] = test system: MATIN: Matricaria inodora; experiment: Pre-emergence herbicidal effect; conditions: pre-emergence; dosage 320 g/ha
# How it was run: as §2
# VERPE: Veronica persica [28] = experiment: Post-emergence herbicidal effect; conditions: dosage 320 g/ha
# How it was run: as §1
compound,measurement,setting,value
"Cc1ccc2c(c1)[C@H](Nc1ncc([C@H](C)O)c(N)n1)[C@@H](C)C2 (racemic) [drawing 14, reference compound]",Herbicidal action against POLCO,[1]; dosage 80 g/ha,60%
same,Herbicidal action against POLCO,[1]; dosage 320 g/ha,60%
same,Herbicidal action against PHBPU,PHBPU: Ipomoea purpurea [2]; dosage 80 g/ha,20%
same,Herbicidal action against PHBPU,PHBPU: Ipomoea purpurea [2]; dosage 320 g/ha,80%
same,Herbicidal action against ALOMY,[3]; dosage 80 g/ha,0%
same,Herbicidal action against ALOMY,[3]; dosage 320 g/ha,70%
same,Herbicidal action against ABUTH,[4]; dosage 80 g/ha,10%
same,Herbicidal action against ABUTH,[4]; dosage 320 g/ha,60%
same,Herbicidal action against SETVI,SETVI: Setaria viridis [5]; dosage 80 g/ha,60%
same,Herbicidal action against ECHCG,[6]; dosage 80 g/ha,0%
same,Herbicidal action against HORMU,HORMU: Hordeum murinum [7]; dosage 80 g/ha,0%
same,Herbicidal action against HORMU,HORMU: Hordeum murinum [7]; dosage 320 g/ha,20%
same,Herbicidal action against LOLRI,LOLRI: Lolium rigidum [8]; dosage 80 g/ha,30%
same,Herbicidal action against LOLRI,LOLRI: Lolium rigidum [8]; dosage 320 g/ha,70%
Cc1ccc2c(c1)[C@H](Nc1ncc(C(C)(C)O)cn1)[C@@H](C)C2 [Example 1.4],Herbicidal action against AMARE,[9],100%
same,Herbicidal action against POLCO,[1]; dosage 80 g/ha,70%
same,Herbicidal action against POLCO,[1]; dosage 320 g/ha,90%
same,Herbicidal action against PHBPU,PHBPU: Ipomoea purpurea [2]; dosage 320 g/ha,100%
same,Herbicidal action against ALOMY,[3]; dosage 80 g/ha,20%
same,Herbicidal action against ALOMY,[3]; dosage 320 g/ha,70%
same,Herbicidal action against STEME,STEME: Stellaria media [10]; dosage 80 g/ha,60%
same,Herbicidal action against STEME,STEME: Stellaria media [10]; dosage 320 g/ha,90%
same,Herbicidal action against ABUTH,[4]; dosage 80 g/ha,60%
same,Herbicidal action against ABUTH,[4]; dosage 320 g/ha,90%
same,Herbicidal action against SETVI,SETVI: Setaria viridis [5]; dosage 320 g/ha,80%
same,Herbicidal action against AVEFA,AVEFA: Avena fatua [11]; dosage 80 g/ha,20%
same,Herbicidal action against AVEFA,AVEFA: Avena fatua [11]; dosage 320 g/ha,50%
same,Herbicidal action against ECHCG,[6]; dosage 80 g/ha,30%
same,Herbicidal action against ECHCG,[6]; dosage 320 g/ha,90%
same,Herbicidal action against VIOTR,VIOTR: Viola tricolor [12]; dosage 80 g/ha,90%
same,Herbicidal action against LOLRI,LOLRI: Lolium rigidum [8]; dosage 80 g/ha,60%
same,Herbicidal action against LOLRI,LOLRI: Lolium rigidum [8]; dosage 320 g/ha,90%
same,Herbicidal action against MATIN,[13]; dosage 80 g/ha,40%
same,Herbicidal action against MATIN,[13]; dosage 320 g/ha,80%
same,Herbicidal action against AMARE,[14]; dosage 80 g/ha,100%
same,Herbicidal action against AMARE,[14]; dosage 320 g/ha,100%
same,Herbicidal action against POLCO,[15]; dosage 80 g/ha,100%
same,Herbicidal action against POLCO,[15]; dosage 320 g/ha,100%
same,Herbicidal action against CYPES,CYPES; dosage 80 g/ha,80%
same,Herbicidal action against CYPES,CYPES; dosage 320 g/ha,100%
same,Herbicidal action against PHBPU,PHBPU: Ipomoea purpurea [16]; dosage 80 g/ha,80%
same,Herbicidal action against PHBPU,PHBPU: Ipomoea purpurea [16]; dosage 320 g/ha,100%
same,Herbicidal action against ALOMY,[17]; dosage 80 g/ha,90%
same,Herbicidal action against ALOMY,[17]; dosage 320 g/ha,100%
same,Herbicidal action against STEME,STEME: Stellaria media [18],100%
same,Herbicidal action against ABUTH,[19]; dosage 80 g/ha,100%
same,Herbicidal action against ABUTH,[19]; dosage 320 g/ha,100%
same,Herbicidal action against SETVI,SETVI: Setaria viridis [20]; dosage 80 g/ha,100%
same,Herbicidal action against SETVI,SETVI: Setaria viridis [20]; dosage 320 g/ha,100%
same,Herbicidal action against AVEFA,AVEFA: Avena fatua [21]; dosage 80 g/ha,80%
same,Herbicidal action against AVEFA,AVEFA: Avena fatua [21]; dosage 320 g/ha,100%
same,Herbicidal action against ECHCG,[22]; dosage 80 g/ha,100%
same,Herbicidal action against ECHCG,[22]; dosage 320 g/ha,100%
same,Herbicidal action against VIOTR,VIOTR: Viola tricolor [23],100%
same,Herbicidal action against HORMU,HORMU: Hordeum murinum [24]; dosage 80 g/ha,90%
same,Herbicidal action against HORMU,HORMU: Hordeum murinum [24]; dosage 320 g/ha,100%
same,Herbicidal action against LOLRI,LOLRI: Lolium rigidum [25]; dosage 80 g/ha,100%
same,Herbicidal action against LOLRI,LOLRI: Lolium rigidum [25]; dosage 320 g/ha,100%
same,Herbicidal action against VERPE,VERPE: Veronica persica [26],100%
same,Herbicidal action against MATIN,[27],100%
"Cc1ccc2c(c1)[C@H](Nc1ncc(C(C)O)c(C)n1)[C@@H](C)C2 (stereo partly drawn) [Example 1.7, 1-(2-{[(1R,2S)-2,6-Dimethyl-2,3-dihydro-1H-inden-1-yl]amino}-4-methylpyrimidin-5-yl)ethanol]",Herbicidal action against AMARE,[9],100%
same,Herbicidal action against POLCO,[1]; dosage 80 g/ha,80%
same,Herbicidal action against POLCO,[1]; dosage 320 g/ha,80%
same,Herbicidal action against PHBPU,PHBPU: Ipomoea purpurea [2]; dosage 80 g/ha,60%
same,Herbicidal action against PHBPU,PHBPU: Ipomoea purpurea [2]; dosage 320 g/ha,100%
same,Herbicidal action against ALOMY,[3]; dosage 80 g/ha,80%
same,Herbicidal action against ALOMY,[3]; dosage 320 g/ha,100%
same,Herbicidal action against STEME,STEME: Stellaria media [10]; dosage 320 g/ha,100%
same,Herbicidal action against ABUTH,[4]; dosage 80 g/ha,60%
same,Herbicidal action against ABUTH,[4]; dosage 320 g/ha,80%
same,Herbicidal action against SETVI,SETVI: Setaria viridis [5]; dosage 80 g/ha,100%
same,Herbicidal action against SETVI,SETVI: Setaria viridis [5]; dosage 320 g/ha,100%
same,Herbicidal action against ECHCG,[6]; dosage 80 g/ha,20%
same,Herbicidal action against ECHCG,[6]; dosage 320 g/ha,100%
same,Herbicidal action against VIOTR,VIOTR: Viola tricolor [12]; dosage 320 g/ha,90%
same,Herbicidal action against HORMU,HORMU: Hordeum murinum [7]; dosage 80 g/ha,40%
same,Herbicidal action against HORMU,HORMU: Hordeum murinum [7]; dosage 320 g/ha,100%
same,Herbicidal action against LOLRI,LOLRI: Lolium rigidum [8]; dosage 80 g/ha,100%
same,Herbicidal action against LOLRI,LOLRI: Lolium rigidum [8]; dosage 320 g/ha,100%
same,Herbicidal action against VERPE,VERPE: Veronica persica [28],90%
same,Herbicidal action against MATIN,[13]; dosage 320 g/ha,90%
same,Herbicidal action against AMARE,[14]; dosage 320 g/ha,100%
same,Herbicidal action against POLCO,[15]; dosage 320 g/ha,100%
same,Herbicidal action against PHBPU,PHBPU: Ipomoea purpurea [16]; dosage 80 g/ha,80%
same,Herbicidal action against PHBPU,PHBPU: Ipomoea purpurea [16]; dosage 320 g/ha,80%
same,Herbicidal action against ALOMY,[17]; dosage 320 g/ha,100%
same,Herbicidal action against STEME,STEME: Stellaria media [18],100%
same,Herbicidal action against ABUTH,[19]; dosage 80 g/ha,90%
same,Herbicidal action against ABUTH,[19]; dosage 320 g/ha,100%
same,Herbicidal action against SETVI,SETVI: Setaria viridis [20]; dosage 320 g/ha,100%
same,Herbicidal action against AVEFA,AVEFA: Avena fatua [21]; dosage 80 g/ha,70%
same,Herbicidal action against AVEFA,AVEFA: Avena fatua [21]; dosage 320 g/ha,90%
same,Herbicidal action against ECHCG,[22]; dosage 320 g/ha,100%
same,Herbicidal action against VIOTR,VIOTR: Viola tricolor [23],100%
same,Herbicidal action against HORMU,HORMU: Hordeum murinum [24]; dosage 320 g/ha,100%
same,Herbicidal action against LOLRI,LOLRI: Lolium rigidum [25]; dosage 320 g/ha,100%
same,Herbicidal action against VERPE,VERPE: Veronica persica [26],100%
same,Herbicidal action against MATIN,[27],100%
